The values below are quoted from earlier work in EP2143418A1, “Antiperspirant compositions” (Unilever PLC, priority 2008, dated 2010).

SMILES strings stand for the structures.

The subject of the series is Staphylococcus epidermidis. Particulars: 80% or greater reduction in growth of inoculum, 16 to 24 hours at 37°C.
Take `CCO` [ethanol]: the minimum inhibitory concentration (MIC) entry is reported as “greater than 1 mg.ml^-1”.

For `CC(C)=CCCC(C)=CCCC(C)=CCO` [farnesol, 3,7,11-trimethyldodeca-2,6,10-trienol], the MIC result is given as “ca. 25 µg.ml^-1”.

Turning to `Oc1cc(Cl)ccc1Oc1ccc(Cl)cc1Cl` [triclosan, 2',4,4'-trichloro,2-hydroxy-diphenyl ether], the MIC was 0.01 to 10 µg/mL.

One may read the MIC as the least concentration at which growth counts as inhibited.
